Source: article PMC6021032, “Antimycobacterial activity of nitrogen heterocycles derivatives: 7-(pyridine-4-yl)-indolizine derivatives. Part VII^8–12” (Journal of Enzyme Inhibition and Medicinal Chemistry, 2017)
In brackets after ≈: the same amount, converted by molar mass.

Legend:
[1] = test system: M. tuberculosis H37Rv; assay: Cycle 2 repeat of MIC, IC50, IC90 under aerobic conditions (lower starting concentrations); format: cell-based, Mycobacterium tuberculosis; settings: Mycobacterium tuberculosis, revaluation; for IC50 / IC90: aerobic; for MIC: repeated at lower starting concentrations, read-out: MIC aerobic condition
[2] = test system: Mycobacterium avium; assay: MIC against nontuberculous mycobacteria (Alamar blue); format: cell-based; settings: M. avium
[3] = test system: Mycobacterium abscessus; assay: MIC, IC50, IC90 against nontuberculous mycobacteria (OD590); format: cell-based; settings: Mycobacteroides abscessus, M. abscessus; for MIC: read-out: MIC
[4] = test system: THP-1 cell line infected with Mtb; assay: Intracellular activity assay, luminescence; format: cell-based, Mycobacterium tuberculosis; settings: Mycobacterium tuberculosis, Mtb-infected THP-1 cells, 72 h; for IC50: read-out: IC50 intracell; for IC90: read-out: IC90 intracell
Procedure: Since the overall efficacy of any anti TB drug will be improved by its ability to traffic into the macrophage phagosome containing replicating bacteria, we evaluated the intracellular activity of compounds[24]. This was measured by using THP-1 cell line infected with Mtb. Infected cells were exposed to compounds for 72 h and viable bacterial counts were measured using luminescence as a measure of intracellular growth.
Assay (Promega) which uses ATP as an indicator of cell viability. Relative luminescent units (RLU) were measured using a Biotek Synergy 4 plate reader. The dose response curve was fitted using the Levenberg–Marquardt algorithm. The IC50 was defined as the compound […]
Intracellular Activity Assay
The activity of compounds against intracellular bacteria was determined by measuring viability in infected THP-1 cell after 3 days in the presence of test compounds. Compounds were prepared as 10-point three-fold serial dilutions in DMSO. The highest concentration of […]
THP-1 cells were cultured in complete RPMI and differentiated into macrophage-like cells using 80 nM PMA overnight at 37°C, 5% CO2. THP-1 cells were infected with a luminescent strain of H37Rv (which constitutively expresses luxABCDE) at a multiplicity of infection of 1 and incubated overnight at 37°C, 5% CO2. Infected cells were recovered using Accutase/EDTA solution, washed twice with PBS to remove extracellular bacteria and seeded into assay pates. Compound dilutions were added to a final DMSO concentration of 0.5%.
Assay plates were incubated for 72 h at 37°C, 5% CO2. Each run included isoniazid as a control. Relative luminescent units (RLU) were measured using a Biotek Synergy 2 plate reader. The dose response curve was fitted using the Levenberg–Marquardt algorithm. The […]
inhibition of growth respectively.
3. Cycle 3 – Absorption, distribution, metabolism, excretion and toxicity (ADMET)
3.1. Plasma Protein Binding Assay
Compounds were added to human plasma at a fixed concentration of 5 µM. The mixture was dialyzed in a RED device (Rapid Equilibrium Dialysis, Pierce) against PBS and incubated on an orbital shaker for 4 h at 37 °C. Aliquots from plasma and PBS sides were collected; an equal volume of PBS was added to the plasma sample, and an equal volume of plasma was added to the PBS sample. Three volumes of methanol (containing the internal binding standard propranolol) was added to precipitate the proteins and release the compound.
Each compound was tested in duplicate. Samples were centrifuged, the supernatant was […]

[5] = Cytotoxicity, THP-1 cell viability (CellTiter-Glo); settings: human
[6] = test system: Mtb H37Rv; assay: LORA parallel plates, oxygen-deprived bacteria incubated under aerobic conditions (normal oxygen); format: cell-based, Mycobacterium tuberculosis; settings: Mycobacterium tuberculosis, H37RV; for MIC: 120 h, oxygen-deprived bacteria, aerobic 5 d
[7] = test system: Mycobacterium tuberculosis H37Rv; assay: Primary screen (Cycle 1): MIC, IC50, IC90 under aerobic conditions; format: cell-based
[8] = in vitro; settings: human
[9] = test system: human liver cells (HepG2); assay: HepG2 cytotoxicity (CellTiter-Glo); format: cell-based; settings: read-out: IC50 (50% loss of viability), 72 h
[10] = test system: Mtb; design: method as in PMID 24268596; settings: reported anti-TB activity of compound 1; cited from earlier work
[11] = In vitro microsomal stability assay; settings: human, 1 μM, 37 °C
Excerpt: The stability of compound is expressed as a function of time[41]^,[42]
3.4. In vitro Microsomal Stability Assay
compound to detect NADPH-free degradation. Verapamil and dextromethorphan were
included as control compounds.

[12] = MIC value taken from the first MIC assay
[13] = Mycobacterium tuberculosis, M. tuberculosis H37Rv, aerobic conditions, primary screen
[14] = M. tuberculosis H37Rv, aerobic conditions, primary screen

CCOC(=O)c1cc(C(=O)c2ccccc2)n2ccc(-c3cc[n+](CC(=O)c4ccc(C)cc4)cc3)cc12.[Br-] [Compound 6a, 4-(3-Benzoyl-1-(ethoxycarbonyl)indolizine-7-yl)-1-(2-oxo-2-(p-tolyl)ethyl)pyridin-1-ium bromide]
IC50 [1]: 12 µM
IC90 [1]: 23 µM
MIC [1]: 22 µM
MIC [2]: 50 µM
MIC ([2]; Mycobacterium avium): 50 µM
IC50 [3]: 24 µM
IC90 [3]: 37 µM
MIC [3]: > 200 µM
IC50 [4]: 5.2 µM
IC90 [4]: 15 µM
IC50 at 3 days [5]: 2.9 µM
IC50 [6]: 9.2 µM
IC90 [6]: 42 µM
MIC [6]: 100 µM
MIC [7, 12]: 14 µM
IC50 [7, 13]: 13 µM
IC90 [7, 13]: 15 µM
MIC [7, 13]: 14 µM

CO[C@H]1/C=C/O[C@@]2(C)Oc3c(C)c(O)c4c(O)c(c(/C=N/N5CCN(C)CC5)c(O)c4c3C2=O)NC(=O)/C(C)=C\C=C\[C@H](C)[C@H](O)[C@@H](C)[C@@H](O)[C@@H](C)[C@H](OC(C)=O)[C@@H]1C [Rifampicin, reference compound]
IC50 [1]: 0.0043 µM
IC90 [1]: 0.0092 µM
MIC [1]: 0.0071 µM (≈ 0.00584 µg/mL)
MIC ([2]; Mycobacterium avium): 0.098 µM (≈ 0.0806 µg/mL)
IC50 [3]: 2.3 µM
IC90 [3]: 3.6 µM
MIC [3]: 3.6 µM (≈ 2.96 µg/mL)
IC50 [6]: 0.0057 µM
IC90 [6]: 0.011 µM
MIC [6]: 0.021 µM (≈ 0.0173 µg/mL)
IC50 [7, 13]: 0.0036 µM
IC90 [7, 13]: 0.0071 µM
MIC [7, 13]: 0.0065 µM (≈ 0.00535 µg/mL)

CCOC(=O)c1cc(C(=O)c2ccc(Cl)cc2)n2ccc(-c3cc[n+](CC(=O)c4cccc(OC)c4)cc3)cc12 [Compound 6d, 4-(3-(4-Chlorobenzoyl)-1-(ethoxycarbonyl)indolizine-7-yl)-1-(2-(3-methoxyphenyl)-2-oxoethyl)pyridin-1-ium]
IC50 [1]: 12 µM
IC90 [1]: 17 µM
MIC [1]: 14 µM
MIC ([2]; Mycobacterium avium): 200 µM
IC50 [3]: 81 µM
IC90 [3]: 150 µM
MIC [3]: > 200 µM
IC50 [4]: 11 µM
IC90 [4]: > 50 µM
IC50 at 3 days [8]: 3.9 µM
IC50 [6]: 17 µM
IC90 [6]: 27 µM
MIC [6]: 43 µM
MIC [7, 12]: 15 µM
IC50 [7, 13]: 14 µM
IC90 [7, 13]: 16 µM
MIC [7, 13]: 15 µM
melting point: 252 to 254 °C

CCOC(=O)c1cc(C(=O)c2ccc(Br)cc2)n2ccc(-c3cc[n+](CC(=O)c4ccc(C)cc4)cc3)cc12.[Br-] [Compound 6f, 4-(3-(4-Bromobenzoyl)-1-(ethoxycarbonyl)indolizine-7-yl)-1-(2-oxo-2-(p-tolyl)ethyl)pyridin-1-ium bromide]
IC50 [7, 13]: 13 µM
IC90 [7, 13]: 19 µM
MIC [7, 13]: 20 µM
melting point: 283 to 284 °C

CCOC(=O)c1cc(C(=O)c2ccc(C)cc2)n2ccc(-c3cc[n+](CC(=O)c4ccc([N+](=O)[O-])cc4)cc3)cc12 [Compound 6k]
IC50 [7, 13]: 200 µM
IC90 [7, 13]: > 200 µM
MIC [7, 13]: > 200 µM

Cc1ncc([N+](=O)[O-])n1CCO [Metronidazole, reference compound]
IC50 [6]: > 200 µM
IC90 [6]: > 200 µM
MIC [6]: > 200 µM

CCOC(=O)c1cc(C(=O)c2ccccc2)n2ccc(-c3cc[n+](CC(=O)c4cccc(OC)c4)cc3)cc12 [Compound 6b, 4-(3-Benzoyl-1-(ethoxycarbonyl)indolizine-7-yl)-1-(2-(3-methoxyphenyl)-2-oxoethyl)pyridin-1-ium]
IC50 [7, 13]: 39 µM
IC90 [7, 13]: > 50 µM
MIC [7, 13]: > 50 µM
melting point: 255 to 256 °C

CN[C@@H]1C[C@H]2O[C@@](C)([C@@H]1OC)n1c3ccccc3c3c4c(c5c6ccccc6n2c5c31)C(=O)NC4 [Staurosporine, reference compound]
IC50 [9]: 0.0086 µM

CCOC(=O)c1cc(C(=O)c2ccc(Br)cc2)n2ccc(-c3cc[n+](CC(=O)c4ccc(Cl)cc4)cc3)cc12 [Compound 6j]
IC50 [7, 13]: > 200 µM
IC90 [7, 13]: > 200 µM
MIC [7, 13]: > 200 µM

NNC(=O)c1ccncc1 [Isoniazid, reference compound]
IC50 [4]: 0.18 µM
IC90 [4]: 0.27 µM

4-[3-(4-Bromophenyl)-1-(ethoxycarbonyl)indolizine-7-yl)-1-(2-(4-methoxyphenyl)-2-oxoethyl)pyridine-1-ium bromide [Compound 6g]
IC50 [7, 14]: 35 µM
IC90 [7, 14]: 46 µM
MIC [7, 14]: 50 µM

CCOC(=O)c1cc(C(=O)c2ccccc2)n2ccc(-c3cc[n+](CC(=O)c4ccc(OC)cc4)cc3)cc12 [Compound 1]
IC90 [10]: 13.1 µM
MIC [10]: 3.91 µM

CCOC(=O)c1cc(C(=O)c2ccc(OC)cc2)n2ccc(-c3cc[n+](CC(=O)c4ccc(Br)cc4)cc3)cc12 [Compound 6l]
IC50 [7, 13]: > 200 µM
IC90 [7, 13]: > 200 µM
MIC [7, 13]: > 200 µM

COc1ccc2c(c1)[C@]13CCCC[C@@H]1[C@H](C2)N(C)CC3 [Dextromethorphan, reference compound]
microsomal CLint at 1 μM ([11]; s9, NADPH-dependent CLint): 24.3 µL/min/mg
half-life at 1 μM ([11]; s9, NADPH-dependent T1/2, Human): 1.58 h
microsomal CLint at 1 μM ([11]; s9, NADPH-free CLint): < 12.8 µL/min/mg
half-life at 1 μM ([11]; s9, NADPH-free T1/2, Human): > 3 h

CCOC(=O)c1cc(C(=O)c2ccc(Br)cc2)n2ccc(-c3cc[n+](CC(=O)c4cccc(OC)c4)cc3)cc12 [Compound 6h, 4-(3-(4-Bromobenzoyl)-1-(ethoxycarbonyl)indolizine-7-yl)-1-(2-(3-methoxyphenyl)-2-oxoethyl)pyridin-1-ium]
IC50 [1]: 15 µM
IC90 [1]: 26 µM
MIC [1]: 27 µM
MIC ([2]; Mycobacterium avium): 200 µM
IC50 [3]: > 200 µM
IC90 [3]: > 200 µM
MIC [3]: > 200 µM
IC50 [4]: 13 µM
IC90 [4]: 43 µM
IC50 at 3 days [8]: 3.8 µM
IC50 [6]: 16 µM
IC90 [6]: 24 µM
MIC [6]: 38 µM
MIC [7, 12]: 14 µM
IC50 [7, 13]: 13 µM
IC90 [7, 13]: 14 µM
MIC [7, 13]: 14 µM
melting point: 256 to 259 °C

CCOC(=O)c1cc(C(=O)c2ccc(Cl)cc2)n2ccc(-c3cc[n+](CC(=O)c4ccc(F)cc4)cc3)cc12 [Compound 6e, 4-(3-(4-Chlorobenzoyl)-1-(ethoxycarbonyl)indolizine-7-yl)-1-(2-(4-fluorophenyl)-2-oxoethyl)pyridin-1-ium bromide]
IC50 [7, 13]: > 100 µM
IC90 [7, 13]: > 100 µM
MIC [7, 13]: > 100 µM
